Source: ChEMBL document CHEMBL4130518, “Apratoxin S10, a Dual Inhibitor of Angiogenesis and Cancer Cell Growth To Treat Highly Vascularized Tumors” (ACS Med Chem Lett, 2017)
Values belong to the compound of their own block, whether it stands above or below them. Active and inactive are the calls of the source. The rule behind the calls is not given here.

Experiments:
HUVEC [1] = assay: Antiangiogenic activity in HUVEC assessed as inhibition of tube like structures formation at 100 nM to 1 uM after 14 hrs by matrigel based inverted microscopy; assay type: functional, cell-based; details: Homo sapiens
NCI-H727 [2] = assay: Antiproliferative activity against human NCI-H727 cells after 48 hrs by MTT assay; assay type: functional, cell-based; details: NCI-H727, 48 h
HUVEC [3] = assay: Antiangiogenic activity in HUVEC assessed as inhibition of tube like structures formation at < 100 nM after 14 hrs by matrigel based inverted microscopy; assay type: functional, cell-based; details: Homo sapiens
A498 [4] = assay: Antiproliferative activity against human A498 cells after 48 hrs by MTT assay; assay type: functional, cell-based; details: A498, 48 h
Huh-7 [5] = assay: Antiproliferative activity against human HuH7 cells after 48 hrs by MTT assay; assay type: functional, cell-based; details: Huh-7, 48 h
HCT-116 = assay: Antiproliferative activity against human HCT116 cells after 48 hrs by MTT assay; assay type: functional, cell-based; details: HCT-116, 48 h
[6] = Half life in KCl/HCl buffer at pH 2.32 after 24 hrs by HPLC-MS analysis; assay type: physicochemical
HUVEC [7] = assay: Antiangiogenic activity in HUVEC assessed as inhibition of tube like structures formation at 10 pM to 1 uM after 14 hrs by matrigel based inverted microscopy; assay type: functional, cell-based; details: Homo sapiens
A498 [8] = assay: Downregulation of MET in human A498 cells at 10 pM to 1 uM after 24 hrs by AlphaLISA based immuno assay; assay type: functional, cell-based
Huh-7 [9] = assay: Inhibition of VEGF-A secretion in human HuH7 cells at 10 pM to 1 uM after 24 hrs by AlphaLISA based immuno assay; assay type: functional, cell-based
A498 [10] = assay: Downregulation of EGFR in human A498 cells at 10 pM to 1 uM after 24 hrs by AlphaLISA based immuno assay; assay type: functional, cell-based
HUVEC [11] = assay: Antiangiogenic activity in HUVEC assessed as inhibition of tube like structures formation after 14 hrs by matrigel based inverted microscopy; assay type: functional, cell-based; details: Homo sapiens
Huh-7 [12] = assay: Downregulation of FGFR4 in human HuH7 cells at 10 pM to 1 uM after 24 hrs by AlphaLISA based immuno assay; assay type: functional, cell-based
NCI-H727 [13] = assay: Downregulation of IGF1Rbeta in human NCI-H727 cells at 10 pM to 1 uM after 24 hrs by AlphaLISA based immuno assay; assay type: functional, cell-based
A498 [14] = assay: Inhibition of VEGF-A secretion in human A498 cells at 10 pM to 1 uM after 24 hrs by AlphaLISA based immuno assay; assay type: functional, cell-based
HUVEC [15] = assay: Downregulation of VEGFR2 expression level in HUVEC at >= 10 nM after 14 hrs by immunoblot analysis; assay type: functional, cell-based; details: Homo sapiens
NCI-H727 [16] = assay: Inhibition of VEGF-A secretion in human NCI-H727 cells at 10 pM to 1 uM after 24 hrs by AlphaLISA based immuno assay; assay type: functional, cell-based
HUVEC [17] = assay: Antiangiogenic activity in HUVEC assessed as diminishing of branch points at 10 pM after 14 hrs by inverted microscopy; assay type: functional, cell-based; details: Homo sapiens
NCI-H727 [18] = assay: Inhibition of IL-6 secretion in human NCI-H727 cells at 10 pM to 1 uM after 24 hrs by AlphaLISA based immuno assay; assay type: functional, cell-based
Huh-7 [19] = assay: Inhibition of IL-6 secretion in human HuH7 cells at 10 pM to 1 uM after 24 hrs by AlphaLISA based immuno assay; assay type: functional, cell-based
NCI-H727 [20] = assay: Downregulation of VEGFR2 in human NCI-H727 cells at 10 pM to 1 uM after 24 hrs by AlphaLISA based immuno assay; assay type: functional, cell-based
HUVEC [21] = assay: Cytotoxicity against HUVEC assessed as decrease in cell viability after 48 hrs by MTT assay; assay type: functional, cell-based; details: Homo sapiens
HUVEC [22] = assay: Antiangiogenic activity in HUVEC assessed as decrease in number of junctions at 10 pM after 14 hrs by branch point counting analysis; assay type: functional, cell-based; details: Homo sapiens
A498 [23] = assay: Inhibition of IL-6 secretion in human A498 cells at 10 pM to 1 uM after 24 hrs by AlphaLISA based immuno assay; assay type: functional, cell-based

IC50 (NCI-H727 [2]): 10.1 µM
IC50 (Huh-7 [5]): 4.71 µM
Compound: CCN(CC)CCNC(=O)c1c(C)[nH]c(/C=C2\C(=O)Nc3ccc(F)cc32)c1C [SUNITINIB]
inhibition (HUVEC [1]): Active
inhibition (HUVEC [3]): inactive
IC50 (A498 [4]): 7.98 µM

Compound: CC[C@H](C)[C@H]1C(=O)N2CCC[C@H]2C(=O)O[C@H](C(C)(C)C)C[C@@H](C)C[C@@H](O)C(C)(C)C2=N[C@H](CCC(=O)N[C@@H](Cc3ccc(OC)cc3)C(=O)N(C)[C@@H](C)C(=O)N1C)CS2
IC50 (HCT-116): 0.00147 µM
IC50 (NCI-H727 [2]): 0.00255 µM
IC50 (A498 [4]): 0.00335 µM
IC50 (Huh-7 [5]): 0.00083 µM
half-life [6]: > 24 h

Compound: CC[C@H](C)[C@H]1C(=O)N2CCC[C@H]2C(=O)O[C@H](C(C)(C)C)C[C@@H](C)C[C@@H](O)C(C)(C)C2=N[C@@H](CCC(=O)N[C@@H](Cc3ccc(OC)cc3)C(=O)N(C)[C@@H](C)C(=O)N1C)CS2
IC50 (HCT-116): 0.00199 µM
half-life [6]: > 24 h

Compound: CC[C@H](C)[C@H]1C(=O)N2CCC[C@H]2C(=O)O[C@H](C(C)(C)C)C[C@@H](C)C[C@@H](O)[C@H](C)C2=N[C@H](CCC(=O)N[C@@H](Cc3ccc(OC)cc3)C(=O)N(C)[C@@H](C)C(=O)N1C)CS2
half-life [6]: > 24 h

IC50 (NCI-H727 [2]): > 6.24 µM
IC50 (Huh-7 [5]): 25 µM
Compound: C#Cc1cccc(Nc2ncnc3cc(OCCOC)c(OCCOC)cc23)c1 [ERLOTINIB]
inhibition (HUVEC [7]): inactive
IC50 (A498 [4]): 12.5 µM

Compound: CC[C@H](C)[C@H]1C(=O)N2CCC[C@H]2C(=O)O[C@H](C(C)(C)C)C[C@@H](C)C[C@@H](O)[C@H](C)C2=N[C@@H](CCC(=O)N[C@@H](Cc3ccc(OC)cc3)C(=O)N(C)[C@@H](C)C(=O)N1C)CS2
half-life [6]: > 24 h

Compound: CC[C@H](C)[C@@H]1C(=O)N2CCC[C@@H]2C(=O)O[C@H](C(C)(C)C)C[C@@H](C)C[C@@H](O)C(C)(C)C2=N[C@H](CCC(=O)N[C@@H](Cc3ccc(OC)cc3)C(=O)N(C)[C@@H](C)C(=O)N1C)CS2
Activity (A498 [8]): Active
inhibition (Huh-7 [9]): Active
Activity (A498 [10]): Active
inhibition (HUVEC [11]): Dose-dependent effect
Activity (Huh-7 [12]): Active
Activity (NCI-H727 [13]): Active
inhibition (A498 [14]): Active
Activity (HUVEC [15]): Active
inhibition (NCI-H727 [16]): Active
Activity (HUVEC [17]): Active
inhibition (NCI-H727 [18]): Active
inhibition (Huh-7 [19]): Active
Activity (NCI-H727 [20]): Active
Activity (HUVEC [21]): Active
Activity (HUVEC [22]): Active
inhibition (A498 [23]): Active

IC50 (NCI-H727 [2]): 14 µM
IC50 (Huh-7 [5]): 4.35 µM
Compound: COc1cc2nccc(Oc3ccc(NC(=O)C4(C(=O)Nc5ccc(F)cc5)CC4)cc3)c2cc1OC [CABOZANTINIB]
inhibition (HUVEC [7]): inactive
IC50 (A498 [4]): 8.46 µM
